≈ marks a conversion by molar mass, not a printed value. Where “and” joins values, the source holds several entries; their conditions need not be identical. Equal entries are not always repeated.
Tests used:
[1] = test system: Enterobacter cloacae HH31254; type: cell-based; conditions: Table A
[2] = test system: Proteus mirabilis SK & F 444; type: cell-based; conditions: Table A
rumen in vitro model [3] = assay: rumen in vitro model (growth promotant activity); set-up: species or system steer
Experimental: The protocol for the rumen in vitro model is analogous to the protocol for the swine in vitro model with the following modifications:
(1) A 400 kg steer is surgically prepared with a rumen cannula.
(2) The animal is fed one time a day with the following ration:
(3) Manipulation of VFA production is described as the production ratio of propionate as a percentage of total VFA produced.
(4) Sampling of the material, via the cannula, is at 120 minutes post feeding.

[4] = test system: Fusobacterium nucleatum ATCC 25586; type: cell-based; conditions: Table D, Anaerobes
B. fragilis SK & F 3060 = type: cell-based, Bacteroides fragilis; conditions: Table D, Anaerobes
B. loeochii SK & F 3087 = type: cell-based; conditions: Table D, Anaerobes
Providencia SK & F 276 = type: cell-based; conditions: Table A
[5] = test system: Bacteroides fragilis ATCC 25285; type: cell-based; conditions: Table D, Anaerobes
[6] = test system: Clostridium perfringens MCP-1; conditions: Table D, Anaerobes
[7] = test system: Serratia marcesens ATCC 13880; type: cell-based; conditions: Table A
[8] = test system: Salmonella gallinarum BC595; conditions: Table A
[9] = test system: Listeria monocytogenes SK & F 2255; type: cell-based; conditions: Table A
rumen in vitro model [10] = assay: rumen in vitro model (growth promotant activity); set-up: species or system steer; remark: listed apart in the source
[11] = test system: E. coli 12140 (SK & F 809); type: cell-based; conditions: Table A
[12] = test system: C. perfringens ATCC 19408; conditions: Table D, Anaerobes
Strep. faecilis HH34358 = type: cell-based; conditions: Table A
[13] = test system: Proteus morgani SK & F 179; type: cell-based; conditions: Table A
B. fragilis H145 = type: cell-based, Bacteroides fragilis; conditions: Table D, Anaerobes
Swine in vitro model = assay: swine in vitro model (growth promotant activity)
[14] = test system: Pseudomonas aeruginosa HH63; type: cell-based; conditions: Table A
[15] = test system: B. thetaiotamicron SK & F 3089; type: cell-based; conditions: Table D, Anaerobes
[16] = test system: Kleb. pneumoniae 4200 (SK & F 798); type: cell-based; conditions: Table A
[17] = test system: Staph. aureus SK & F 2613; type: cell-based; conditions: Table B, Methicillin Sensitive
C. perfringens MCP-2 = conditions: Table D, Anaerobes
solubility = type: physicochemical

Question: For `CN[C@H]1C(=O)N[C@H]2C(=O)N[C@H](C(=O)N[C@H]3C(=O)N[C@H]4C(=O)N[C@H](C(=O)N[C@H](C(=O)O)c5cc(O)cc(O[C@H]6O[C@H](CO)[C@@H](O)[C@H](O)[C@@H]6O)c5-c5cc4ccc5O)[C@H](O)c4cc(Cl)c(c(Cl)c4)Oc4cc3cc(c4O[C@@H]3O[C@H](C(=O)O)[C@@H](O)[C@H](O)[C@H]3NC(=O)CCCCCCCC(C)C)Oc3ccc(cc3Cl)[C@H]2O)c2cc(cc(O)c2Cl)Oc2cc1ccc2O` [AAD 216B], which MIC [1] is on record?
Answer: Its MIC is greater than 100 µg/mL.

Question: What about the MIC [2] of the same molecule?
Answer: The MIC was greater than 100 µg/mL.

Question: And the “VFA (total of volatile fatty acids)” value (rumen in vitro model [3])?
Answer: The value was 111 % Control and 121 % Control.

Question: What about the MIC [4] of the same molecule?
Answer: Its MIC is 32 µg/mL (≈ 17.7 µM).

Question: What about the MIC (B. fragilis SK & F 3060) of the same molecule?
Answer: The MIC was 16 µg/mL (≈ 8.87 µM).

Question: What about the MIC (B. loeochii SK & F 3087) of the same molecule?
Answer: Its MIC is 16 µg/mL (≈ 8.87 µM).

Question: And the MIC (Providencia SK & F 276)?
Answer: Its MIC is greater than 100 µg/mL.

Question: And the MIC [5]?
Answer: The MIC was 32 µg/mL (≈ 17.7 µM).

Question: What about the MIC [6] of the same molecule?
Answer: The MIC was 0.125 µg/mL (≈ 0.0693 µM).

Question: And the MIC [7]?
Answer: Its MIC is greater than 100 µg/mL.

Question: What about the MIC [8] of the same molecule?
Answer: The MIC was greater than 100 µg/mL.

Question: What about the MIC [9] of the same molecule?
Answer: Its MIC is 0.4 µg/mL (≈ 0.222 µM).

Question: And the “LYS (lysine)” value (rumen in vitro model [10])?
Answer: The value was 124 % Control and 107 % Control and 103 % Control.

Question: What about the MIC [11] of the same molecule?
Answer: Its MIC is greater than 100 µg/mL.

Question: And the MIC [12]?
Answer: Its MIC is 0.125 µg/mL (≈ 0.0693 µM).

Question: And the MIC (Strep. faecilis HH34358)?
Answer: The MIC was 0.4 µg/mL (≈ 0.222 µM).

Question: What about the MIC [13] of the same molecule?
Answer: The MIC was greater than 100 µg/mL.

Question: What about the MIC (B. fragilis H145) of the same molecule?
Answer: Its MIC is 16 µg/mL (≈ 8.87 µM).

Question: And the “GLU (glucose)” value (Swine in vitro model)?
Answer: Its value is 190 % Control and 184 % Control and 97 % Control.

Question: And the “LYS (lysine)” value (Swine in vitro model)?
Answer: Its value is 50 % Control and 55 % Control.

Question: And the MIC [14]?
Answer: The MIC was greater than 100 µg/mL.

Question: What about the MIC [15] of the same molecule?
Answer: Its MIC is 32 µg/mL (≈ 17.7 µM).

Question: And the MIC [16]?
Answer: The MIC was greater than 100 µg/mL.

Question: And the MIC [17]?
Answer: Its MIC is 1.6 µg/mL (≈ 0.887 µM).

Question: And the MIC (C. perfringens MCP-2)?
Answer: Its MIC is 0.125 µg/mL (≈ 0.0693 µM).

Question: What about the solubility (solubility; H2O, methanol, dimethylsulfoxide, dimethylformamide) of the same molecule?
Answer: The solubility was “soluble”.

Question: And the solubility (solubility; ethanol, acetonitrile, acetone, diethylether, aliphatic hydrocarbons)?
Answer: Its solubility is “insoluble”.

Reference: patent US4672036A, “Pure cultures of Kibdelsporangium aridum Shearer gen. nov., sp. nov. ATCC 39323 and mutants thereof” (SmithKline Beckman Corporation, priority 1985, dated 1987)
